For assay [1], the target named is PIK3CB (Human) (UniProt P42338). The assay can be described thus: Cell-Based Assay. Particulars: mda-mb-468.
The target is the same in assay [2]. Briefly: Enzyme Assay.

Sequence of PIK3CB (Human) (P42338 whole entry, looked up): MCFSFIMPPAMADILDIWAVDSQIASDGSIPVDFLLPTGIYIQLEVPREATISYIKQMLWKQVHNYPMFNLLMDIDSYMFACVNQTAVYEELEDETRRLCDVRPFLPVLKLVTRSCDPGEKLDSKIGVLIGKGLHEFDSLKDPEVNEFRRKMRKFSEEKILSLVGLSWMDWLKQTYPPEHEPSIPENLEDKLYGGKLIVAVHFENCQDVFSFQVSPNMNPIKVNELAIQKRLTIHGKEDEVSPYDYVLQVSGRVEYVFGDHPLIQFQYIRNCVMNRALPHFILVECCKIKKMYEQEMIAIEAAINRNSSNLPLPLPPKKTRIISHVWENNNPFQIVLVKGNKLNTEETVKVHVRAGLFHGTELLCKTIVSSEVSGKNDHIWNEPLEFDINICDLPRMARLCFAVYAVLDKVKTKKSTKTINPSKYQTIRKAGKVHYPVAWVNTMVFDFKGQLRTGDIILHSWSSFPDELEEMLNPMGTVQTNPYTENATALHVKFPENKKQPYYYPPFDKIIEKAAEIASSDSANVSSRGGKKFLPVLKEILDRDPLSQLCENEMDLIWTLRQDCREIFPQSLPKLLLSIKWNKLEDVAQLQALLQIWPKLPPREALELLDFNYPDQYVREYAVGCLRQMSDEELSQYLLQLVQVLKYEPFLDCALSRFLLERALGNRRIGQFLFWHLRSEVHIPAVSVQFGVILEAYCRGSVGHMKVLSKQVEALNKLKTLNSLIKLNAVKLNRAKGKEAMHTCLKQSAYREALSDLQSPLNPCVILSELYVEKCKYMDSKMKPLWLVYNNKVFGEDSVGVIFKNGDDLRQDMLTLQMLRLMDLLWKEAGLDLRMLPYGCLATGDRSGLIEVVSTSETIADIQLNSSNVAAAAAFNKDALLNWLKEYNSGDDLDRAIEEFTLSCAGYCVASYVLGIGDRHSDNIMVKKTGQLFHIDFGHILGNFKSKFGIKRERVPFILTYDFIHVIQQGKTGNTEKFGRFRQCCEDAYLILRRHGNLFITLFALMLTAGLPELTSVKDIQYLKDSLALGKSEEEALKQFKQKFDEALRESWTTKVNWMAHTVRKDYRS

As usually defined, the EC50 is the concentration that produces a half-maximal response. Low values mean greater potency, high ones weaker potency. Take `Cc1nn2c(NC(N)=O)cc(N3CCOCC3)nc2c1Cc1cccc(C(F)(F)F)c1C`: the EC50 on PIK3CB (Human) [1] turned out to be 1.26 µM.
The molecule `COc1nn2c(O)cc(-c3ccncc3)nc2c1Cc1cccc(Cl)c1Cl` had an EC50 at PIK3CB (Human) [1] of 25.1 µM.
In turn, `Cc1nn2c(O)cc(N3CCOCC3)nc2c1Cc1cccc(C(F)(F)F)c1C` came in with an EC50 at PIK3CB (Human) [1] of 5.01 µM.
`Cc1nn2c(C(N)=O)cc(N3CCOCC3)nc2c1Cc1cccc(C(F)(F)F)c1C`: the concentration giving a half-maximal response (EC50) at PIK3CB (Human) [1] was 2 µM.
On the same count and under the same terms, then `Cc1nn2c(C(=O)O)cc(N3CCOCC3)nc2c1Cc1cccc(C(F)(F)F)c1C`, with 3.16 µM.
As for `Cc1nn2c(O)cc(C3CCOCC3)nc2c1Cc1cccc(C(F)(F)F)c1C`, the EC50 at PIK3CB (Human) [1] amounted to 15.8 µM.
By IC50 is commonly meant the concentration that gives 50% inhibition. A higher IC50 goes with a need for much substance. On PIK3CB (Human) [2], `Cc1c(Cc2c(O)nn3c(O)cc(C4CCOCC4)nc23)cccc1C(F)(F)F` gave a half-inhibitory concentration (IC50) of 0.0631 µM.
Consider `Nc1nn2c(O)cc(C3CCOCC3)nc2c1Cc1cccc(Cl)c1Cl`, for which the EC50 at PIK3CB (Human) [1] was determined as 10 µM.
`Cc1c(Cc2cnn3c(O)cc(N4CCOCC4)nc23)cccc1C(F)(F)F` had a concentration for a half-maximal effect (EC50) at PIK3CB (Human) [1] of 3.16 µM.
On PIK3CB (Human) [1], `Cc1c(Cc2cnn3c(O)cc(-c4ccncc4)nc23)cccc1C(F)(F)F` yielded an EC50 of 15.8 µM.
At PIK3CB (Human) [1], `Cc1nn2c(O)cc(N3CCOCC3)nc2c1Cc1cccc2ccccc12` had an EC50 of 3.98 µM.
`CC1=NC(=O)C2SC(N3CCOCC3)=NC2N1Cc1cccc(C(F)(F)F)c1C` (configuration not stated) gave a half-inhibitory concentration (IC50) against PIK3CB (Human) [2] of 0.000631 µM.
